Experimental data from article PMC2246842, “Decrease of prostaglandin I2 binding sites in thyroid cancer” (British Journal of Cancer, 1988).
Values joined by “and” are separate entries in the source; they are usually repeats but may differ in a detail not shown here. Equal entries are not always repeated.

What was measured:
[1] = parameters: method as in Moncada et al., 1976; conditions: pH 7.4; degradation to 6-oxo-PGF1a; ref Moncada et al., 1976; cited from earlier work
[2] = molecular target: prostaglandin I2 (prostacyclin, PGI2) binding sites; assay: [3H]iloprost saturation binding (vacuum filtration, Scatchard analysis) on normal thyroid membrane fraction; parameters: species or system human; conditions: normal thyroid tissue, 4 C, 40 min, mean +/- s.d.; read-out: equilibrium dissociation constant (Kd), low affinity binding sites
Description: (§1) For comparative studies saturation experi- ments were performed. […] Values are given as x +s.d. Student's t-test was employed for paired data. […] Each point represents the average of 6 separate experiments. […] Each point represents the average of 5 separate determinations.

[3] = molecular target: T1, prostaglandin I2 (prostacyclin, PGI2) binding sites (Homo sapiens, UniProt P43119); assay: as above
Description: as §1

[4] = molecular target: T1, prostaglandin I2 (prostacyclin, PGI2) binding sites; assay: [3H]iloprost saturation binding (vacuum filtration, Scatchard analysis) on less differentiated and anaplastic thyroid cancer membrane fraction
Description: as §1

[5] = molecular target: T1, prostaglandin I2 (prostacyclin, PGI2) binding sites; assay: [3H]iloprost saturation binding (vacuum filtration, Scatchard analysis) on benign solitary thyroid adenoma membrane fraction
[6] = molecular target: T1, prostaglandin I2 (prostacyclin, PGI2) binding sites; assay: [3H]iloprost saturation binding (vacuum filtration, Scatchard analysis) on well differentiated thyroid cancer membrane fraction
Description: as §1

T1 sequence (P43119 1-383): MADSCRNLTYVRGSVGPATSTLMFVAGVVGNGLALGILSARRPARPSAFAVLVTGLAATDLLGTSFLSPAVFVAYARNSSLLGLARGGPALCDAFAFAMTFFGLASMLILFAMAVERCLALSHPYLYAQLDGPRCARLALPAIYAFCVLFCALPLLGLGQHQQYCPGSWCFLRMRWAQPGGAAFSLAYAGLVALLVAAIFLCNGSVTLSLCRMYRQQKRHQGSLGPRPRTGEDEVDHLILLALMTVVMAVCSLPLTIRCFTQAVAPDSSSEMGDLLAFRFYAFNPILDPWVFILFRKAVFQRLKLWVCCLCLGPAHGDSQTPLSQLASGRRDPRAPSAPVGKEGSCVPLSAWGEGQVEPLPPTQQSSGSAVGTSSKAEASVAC

## CCCCC[C@H](O)/C=C/[C@@H]1[C@H]2C/C(=C/CCCC(=O)O)O[C@H]2C[C@H]1O [PGI2, prostaglandin I2]
[1]
  stability in aqueous medium: rapid hydrolysis

## CC#CCC(C)[C@H](O)/C=C/[C@@H]1[C@H]2C/C(=C/CCCC(=O)O)C[C@H]2C[C@H]1O (stereo partly drawn) [[3H]iloprost, iloprost]
[2]
  Kd: 132 nM
[3]
  binding capacity (Bmax), high affinity binding sites: 613.2 ± 130.4
[4]
  Bmax: 218.1 fmol mg- 1 protein and 176.0 fmol mg- 1 protein and 153.2 fmol mg- 1 protein and 165.3 fmol mg- 1 protein and 190.6 fmol mg- 1 protein
  Bmax, high affinity binding sites: 180.6 ± 25.1
  diminution of [3H]iloprost high affinity binding sites: ~70%
[5]
  Bmax, high affinity binding sites: 325.8 ± 110.0
[6]
  Bmax: 328.9 fmol mg- 1 protein and 359.2 fmol mg- 1 protein and 253.6 fmol mg- 1 protein and 255.5 fmol mg- 1 protein and 301.2 fmol mg- 1 protein
  Bmax, high affinity binding sites: 299.7 ± 46.0
